Experimental data from patent US8287923B2, “Compositions and methods for treating immune disorders” (priority 2005, dated 2012).

Test system: normal human epidermal keratinocytes (NHEK)
Assay: Affymetrix gene array analysis, autoantigen gene expression
Assay type: cell-based
Description: The gene array experiment was performed at the Core Facility of Genomics of the Medical College of Georgia, according to the instructions of the manufacturer (Affymetrix, Santa Clara, Calif.). Briefly, NHEK and OSC2 cells treated with 100 μM EGCG for different time period were extracted for total RNA, the RNA was processed for probes and hybridized with a cDNA microarray (HuG133A, Affymetrix) which represents 22,283 human series. DNA chips were read with a Hewlett-Packard GeneArray Scanner at a resolution of […] and were analyzed with the GeneSpring software (Silicon Genetics, Redwood City, Calif.). Details of this analysis will be published elsewhere (Hsu et al., manuscript in preparation).
Gene assays provide a valuable tool for studying the broad response of cells to agents, and we have used this approach to compare the differential effects of GTPP on gene expression in NHEK and human oral squamous carcinoma cells (Hsu, et al, manuscript in preparation). […] See also Hsu, S. et al. (2005) JPET 315:805-811, which is incorporated by reference in its entirety.

## O=C(O[C@@H]1Cc2c(O)cc(O)cc2O[C@@H]1c1cc(O)c(O)c(O)c1)c1cc(O)c(O)c(O)c1 [EGCG, (−)-epigallocatechin-3-gallate]
24 h, 100 μM
  Ku autoantigen, 80 kDa (208642_s_at) expression, normalized: 0.73
  Ku autoantigen, 80 kDa (208643_s_at) expression, normalized: 0.77
  Nuclear antigen SP100 (202863_at) expression, normalized: 0.36
  Nuclear antigen SP100 (202864_s_at) expression, normalized: 0.08
  Nuclear antigen SP10075 kDa (213226_at) expression, normalized: 0.50
  RNA polymerase 1 (202692_s-at) expression, normalized: 0.55
  SS-B/La (201138_s_at) expression, normalized: 0.27
  SS-B/La (201139_s_at) expression, normalized: 0.26
  centromere protein C1 (20473_at) expression, normalized: 0.94
  coilin (203653_s_at) expression, normalized: 0.79
  coilin (203654_s_at) expression, normalized: 0.79
  fodrin-α (208611_s_at) expression, normalized: 0.42
  fodrin-α (215235_s_at) expression, normalized: 0.71
  golgin-67 (208797_s_at) expression, normalized: 0.29
  golgin-67 (208798_x_at) expression, normalized: 0.31
  golgin-67 (210425_x_at) expression, normalized: 0.31
  golgin-67 (213650_at) expression, normalized: 0.72
  scleroderma autoantigen 1, 75 kDa (213226_at) expression, normalized: 0.50
  spectrin-β non-erythrocyctic 1 (212071_s_at) expression, normalized: 0.72
  thyroid autoantigen 70 kDa (Ku antigen) (200792_at) expression, normalized: 0.79
24 h, 100 μM, vs time zero
  ADPRT [poly(ADP)-ribose polymerase] expression: 0.85 fold
  ANAP12 expression: 0.198 fold
  ANXA11 expression: 1.946 fold
  CALR expression: 1.528 fold
  CBARA1 expression: 0.721 fold
  CENPA expression: 0.673 fold
  CENPB expression: 0.721 fold
  CENPC1 expression: 0.936 fold
  CHD4 expression: 0.84 fold
  COL17A1 expression: 0.684 fold
  CTDSP1 expression: 1.39 fold
  CTDSP2 expression: 1.71 fold
  CTDSPL expression: 2.10 fold
  DLAT expression: 0.751 fold
  EPPK1 expression: 0.889 fold
  FBL expression: 0.69 fold
  FLJ31657 expression: 0.959 fold
  FLNB (Filamin B, β) expression: 0.249 fold
  FLNB (Filamin B, γ) expression: 0.243 fold
  G22P1 (Thyroid autoantigen, 70 kDa, Ku antigen) expression: 0.792 fold
  GMEB2 expression: 0.745 fold
  GOLGA1 expression: 0.9 fold
  GOLGA2 expression: 0.949 fold
  GOLGA3 expression: 0.419 fold
  GOLGA4 expression: 0.664 fold
  GOLGA5 expression: 1.494 fold
  GOLGB1 expression: 0.688 fold
  HARS expression: 0.72 fold
  HARSL expression: 1.00 fold
  HSA6591 expression: 0.562 fold
  HUMAUANTIG expression: 0.517 fold
  IMP-2 expression: 0.665 fold
  LAD1 expression: 0.553 fold
  LMO4 expression (repeat 1): 1.011 fold
  LMO4 expression (repeat 2): 0.659 fold
  MGC5560 expression (repeat 1): 0.81 fold
  MGC5560 expression (repeat 2): 0.552 fold
  NS (Nucleostemin) expression: 0.814 fold
  PDHB expression: 0.818 fold
  PDX1 expression: 0.903 fold
  PMSCL1, 75 kDa expression: 0.496 fold
  PMSCL2 expression: 0.717 fold
  POLR1B expression: 1.04 fold
  POLR1D expression: 1.31 fold
  POLR2A expression (repeat 1): 1.02 fold
  POLR2A expression (repeat 2): 1.17 fold
  POLR2B expression: 0.74 fold
  POLR2C expression: 1.66 fold
  POLR2D expression: 0.29 fold
  POLR2E expression: 0.39 fold
  POLR2F expression: 0.80 fold
  POLR2G expression: 0.89 fold
  POLR2H expression: 1.15 fold
  POLR3C expression: 0.49 fold
  POLR3G expression: 0.47 fold
  PSME3 expression: 0.421 fold
  RALY expression: 0.612 fold
  SART1 expression: 0.98 fold
  SLC25A16 expression: 1.144 fold
  SNRP70 expression: 0.51 fold
  SNRPA expression: 0.32 fold
  SNRPB2 expression: 0.82 fold
  SNRPB expression (repeat 1): 0.52 fold
  SNRPB expression (repeat 2): 0.42 fold
  SNRPC expression: 1.12 fold
  SNRPD1 expression (repeat 1): 0.425 fold
  SNRPD1 expression (repeat 2): 0.517 fold
  SOX13 expression: 1.582 fold
  SP100 expression (repeat 1): 0.356 fold
  SP100 expression (repeat 2): 0.079 fold
  SP110 expression (repeat 1): 0.978 fold
  SP110 expression (repeat 2): 0.654 fold
  SP110 expression (repeat 3): 0.621 fold
  SPTAN1 (α-fodrin) expression (repeat 1): 0.42 fold
  SPTAN1 (α-fodrin) expression (repeat 2): 0.71 fold
  SPTBN expression: 0.72 fold
  SSA2 (autoantigen SS-A/Ro) expression (repeat 2): 0.88 fold
  SSA2 expression (repeat 1): 1.17 fold
  SSA2 expression (repeat 3): 1.556 fold
  SSA2 expression (repeat 4): 0.94 fold
  SSB (autoantigen La) expression (repeat 1): 0.273 fold
  SSB (autoantigen La) expression (repeat 2): 0.257 fold
  SSNA1 expression: 0.943 fold
  SSSCA1 expression: 1.228 fold
  STRN3 expression: 0.759 fold
  TOP1 expression (repeat 1): 0.12 fold
  TOP1 expression (repeat 2): 0.43 fold
  UBTF expression: 0.546 fold
  XRCC5 (Ku autoantigen, 80 kDa) expression (repeat 1): 0.771 fold
  XRCC5 (Ku autoantigen, 80 kDa) expression (repeat 2): 0.725 fold
  dJ963E22.1 expression: 0.88 fold
  α-NAC expression: 0.469 fold
Followed by a 2-fold or greater decrease
  rapid initial increase of nuclear antigen SP100 and scleroderma autoantigen 1 mRNA: 2-4 fold
Rapid (0.5-2 hr initiation) and persistent during the 24 hr period
  decrease in mRNA levels of RNA polymerase I, SS-B/La, alpha-fodrin and golgin-67: ≥ 2 fold
Time course up to 24 hr
  60 kDa SS-A/Ro mRNA level: did not decline significantly
